Source: patent US20050260733A1, “Proteases and uses thereof” (WYETH, priority 2004, published 2005)

test system: MAb AGG-C1; experiment: Competitive inhibition ELISA validating the neoepitope specificity of MAb AGG-C1; format: binding, mouse; details: competitor 1.0-1000 nmol/ml, MAb AGG-C1 0.04 μg/ml, FIG. 5
Protocol: Streptavidin-coated microtiter plates (Pierce, Rockford, Ill.) were coated with N-terminally biotinylated peptide aggc1 (b-aggc1) by incubating each well with 100 μl of b-aggc1 (100 ng/ml) for 1 h at room temperature. After washing 4 times with phosphate-buffered saline containing 0.01% Tween-20 (PBS-Tween), wells were blocked for 1 h at room temperature with 100 μl of PBS-Tween containing 2% BSA, followed by 4 washes with PBS-Tween.
In order to validate the neoepitope nature of MAb AGG-C1, competition mixtures (100 μl) comprised of MAb AGG-C1 (0.04 μg/ml) and 1.0-1000 nmol/ml of the synthetic peptides GGLPLPRNITEGE (SEQ ID NO:22), GGLPLPRNITEGE ARGSVILTVK-CONH2 (SEQ ID NO:23), undigested aggrecan, or ADAMTS-4 digested aggrecan were preincubated for 1 h at room temperature. Mixtures were then transferred to b-aggc1 coated wells. After a further incubation for 1 h at room temperature, the plates were washed 4 times with PBS-Tween then incubated for 1 h at room temperature with 100 μl of peroxidase-conjugated secondary goat anti-mouse IgG (1:10,000). Following 4 final washes with PBS-Tween, the wells were incubated with TMB 1 component microwell peroxidase substrate (BioFX Laboratories, Owings Mills, Md.). Color development was terminated by the addition of 0.18 M H2SO4, and the absorbance was monitored spectrophotometrically at 450 nm.

Substance	competition for MAb AGG-C1 binding to biotinylated aggc1 peptide
ADAMTS4 digested aggrecan: Bovine aggrecan digested with ADAMTS-4, used as ELISA competitor	Dose-dependent competition
GGLPLPRNITEGE (listed as Homo sapiens) [Synthetic peptide whose C-terminus corresponds to E373 of aggrecan core protein]	Dose-dependent competition
GGPLPRNITEGEARGSVILTVK [Synthetic peptide spanning the aggrecanase cleavage site]	did not compete
undigested aggrecan: Intact bovine aggrecan, used as ELISA competitor	did not compete
